Numbered stars: 1 amine (or outer) side, 2 acyl side, 3 side chain; on linkers, the order of the positions; unused ones are H or OH. Bridge positions count the residues as written; N and C are the ends. Side chains are listed from the residue outwards. Peptide text beside a SMILES is read from it. * marks the point of attachment. C20 diacid = O=C(O)CCCCCCCCCCCCCCCCCCC(=O)*; γGlu = O=C(O)[C@H](CCC(=O)[*:2])N[*:1]; AEEA = NCCOCCOCC(=O)O
Assays:
[1] = ASSAY (III) ThT fibrillation assay for physical stability; type: physicochemical
Procedure, shortened: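 Formulations with 1 μM ThT, pH adjusted as required, incubated at 37 °C with 960 rpm orbital shaking; fluorescence (ex 444/em 485 nm) read every 20 min. Fibrillation reported as mean ThT fluorescence ± SD of 4–8 replicates at time points; polypeptide concentration measured by reverse-phase HPLC before and after, post-centrifugation.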

[2] = target: T1, human amylin 3(a) receptor (human calcitonin receptor + RAMP-3) in BHK570 cells (Homo sapiens, UniProt O60896+P30988); assay: ASSAY (II)a functional assay, human amylin receptor (CRE luciferase); type: cell-based
T1 construct: expressed in transfected cells
Procedure, shortened: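 Cells were seeded and cultured overnight, then incubated with standard or sample for 3 h at 37° C in serum-containing medium at pH 7.4. The medium was then swapped for PBS, LucLite was added for 30 min at room temperature, and luminescence was recorded. Cells were BHK with CRE-luc and calcitonin receptor, ± RAMP-3.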

[3] = hCTR funct. EC50 divided by hAmylin-R funct. EC50
[4] = hCTR funct. EC50 over hAmylin-R funct. EC50
[5] = human functional selectivity: hCTR funct. EC50 / hAmylin-R funct. EC50
[6] = hCTR funct. EC50 / hAmylin-R funct. EC50

T1 sequence (O60896 24-148): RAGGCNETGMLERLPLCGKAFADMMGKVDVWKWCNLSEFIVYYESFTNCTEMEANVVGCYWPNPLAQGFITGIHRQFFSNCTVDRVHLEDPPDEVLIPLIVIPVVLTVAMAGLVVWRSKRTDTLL
T1 sequence (P30988 25-474): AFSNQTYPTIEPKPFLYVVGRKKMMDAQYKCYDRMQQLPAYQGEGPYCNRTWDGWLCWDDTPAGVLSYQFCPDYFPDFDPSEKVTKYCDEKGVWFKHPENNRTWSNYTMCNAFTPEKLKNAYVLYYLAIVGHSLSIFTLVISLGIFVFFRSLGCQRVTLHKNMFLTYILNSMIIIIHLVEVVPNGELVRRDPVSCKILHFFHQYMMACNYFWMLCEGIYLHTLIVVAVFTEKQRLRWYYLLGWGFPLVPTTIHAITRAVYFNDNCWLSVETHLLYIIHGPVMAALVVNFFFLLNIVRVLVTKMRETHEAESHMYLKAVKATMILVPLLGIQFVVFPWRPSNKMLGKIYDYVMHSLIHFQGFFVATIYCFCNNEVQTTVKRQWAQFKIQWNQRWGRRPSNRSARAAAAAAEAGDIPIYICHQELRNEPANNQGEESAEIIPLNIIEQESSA

| Compound | ThT pH 4.0 lag time (h) [1] | Ratio hCT/hAmylin funct. [2, 3] | Ratio hCT/hAmylin funct. [2, 4] | Ratio hCT/hAmylin funct. [2, 5] | Ratio hCT/hAmylin funct. [2, 6] |
| --- | --- | --- | --- | --- | --- |
| CC[C@H](C)[C@H](NC(=O)[C@H](C)NC(=O)CNC(=O)[C@H](Cc1ccccc1)NC(=O)[C@H](CC(N)=O)NC(=O)[C@@H]1CCCN1C(=O)[C@H](CO)NC(=O)[C@H](CO)NC(=O)[C@H](Cc1c[nH]cn1)NC(=O)[C@H](CCCNC(=N)N)NC(=O)[C@H](CC(C)C)NC(=O)[C@H](Cc1ccccc1)NC(=O)[C@H](CC(=O)O)NC(=O)[C@H](C)NC(=O)[C@H](CC(C)C)NC(=O)[C@H](CCCNC(=N)N)NC(=O)[C@H](CCC(N)=O)NC(=O)[C@@H](NC(=O)[C@H](C)NC(=O)[C@@H]1CSSC[C@H](NC(=O)[C@@H](N)CCCCNC(=O)CC[C@H](NC(=O)CC[C@H](NC(=O)CCCCCCCCCCCCCCCCCCC(=O)O)C(=O)O)C(=O)O)C(=O)N[C@@H](CC(N)=O)C(=O)N[C@@H]([C@@H](C)O)C(=O)N[C@@H](C)C(=O)N[C@@H]([C@@H](C)O)C(=O)N1)[C@@H](C)O)C(=O)N1CCC[C@H]1C(=O)N[C@@H](CO)C(=O)N[C@@H](CO)C(=O)N[C@H](C(=O)N[C@@H](CC(N)=O)C(=O)N[C@H](C(=O)NCC(=O)N1CCC[C@H]1C(=O)N[C@@H](CCCNC(=N)N)C(=O)N[C@H](C(=O)N[C@@H](Cc1ccc(O)cc1)C(N)=O)[C@@H](C)O)C(C)C)[C@@H](C)O [Example 130] (H-K([γGlu-γGlu-C20 diacid])CNTATCATQRLADFLRHSSPNFGAIPSSTNVGPRTY-NH2; disulfide 2-7 (inferred); N-terminus assumed) | 45 h | 44.9 | 44.9 | 44.9 | – |
| CC[C@H](C)[C@H](NC(=O)[C@H](C)NC(=O)CNC(=O)[C@H](Cc1ccccc1)NC(=O)[C@H](CC(N)=O)NC(=O)[C@@H]1CCCN1C(=O)[C@H](CO)NC(=O)[C@H](CO)NC(=O)[C@H](Cc1c[nH]cn1)NC(=O)[C@H](CCCNC(=N)N)NC(=O)[C@H](CC(C)C)NC(=O)[C@H](Cc1ccccc1)NC(=O)[C@H](Cc1c[nH]cn1)NC(=O)[C@H](C)NC(=O)[C@H](CC(C)C)NC(=O)[C@H](CCCNC(=N)N)NC(=O)[C@H](CCC(N)=O)NC(=O)[C@@H](NC(=O)[C@H](C)NC(=O)[C@@H]1CSSC[C@H](NC(=O)[C@H](CCCNC(=N)N)NC(=O)CNC(=O)CC[C@H](NC(=O)CCCCCCCCCCCCCCCCCCC(=O)O)C(=O)O)C(=O)N[C@@H](CC(N)=O)C(=O)N[C@@H]([C@@H](C)O)C(=O)N[C@@H](C)C(=O)N[C@@H]([C@@H](C)O)C(=O)N1)[C@@H](C)O)C(=O)N1CCC[C@H]1C(=O)N[C@@H](CO)C(=O)N[C@@H](CO)C(=O)N[C@H](C(=O)N[C@@H](CC(N)=O)C(=O)N[C@H](C(=O)NCC(=O)N1CCC[C@H]1C(=O)N[C@@H](CC(N)=O)C(=O)N[C@H](C(=O)N[C@@H](Cc1ccc(O)cc1)C(N)=O)[C@@H](C)O)C(C)C)[C@@H](C)O [Example 102] ({C20 diacid-γGlu}-GRCNTATCATQRLAHFLRHSSPNFGAIPSSTNVGPNTY-NH2; disulfide 3-8 (inferred)) | 26 h | 2.9 | 2.9 | 2.9 | 2.9 |
| CC[C@H](C)[C@H](NC(=O)[C@H](C)NC(=O)CNC(=O)[C@H](Cc1ccccc1)NC(=O)[C@H](CC(N)=O)NC(=O)[C@@H]1CCCN1C(=O)[C@H](CO)NC(=O)[C@H](CO)NC(=O)[C@H](Cc1c[nH]cn1)NC(=O)[C@H](CCCNC(=N)N)NC(=O)[C@H](CC(C)C)NC(=O)[C@H](Cc1ccccc1)NC(=O)[C@H](Cc1c[nH]cn1)NC(=O)[C@H](C)NC(=O)[C@H](CC(C)C)NC(=O)[C@H](CCCNC(=N)N)NC(=O)[C@H](CCC(N)=O)NC(=O)[C@@H](NC(=O)[C@H](C)NC(=O)[C@@H]1CSSC[C@H](NC(=O)[C@@H](N)CCCCNC(=O)COCCOCCNC(=O)CC[C@H](NC(=O)CCCCCCCCCCCCCCCCCCC(=O)O)C(=O)O)C(=O)N[C@@H](CC(N)=O)C(=O)N[C@@H]([C@@H](C)O)C(=O)N[C@@H](C)C(=O)N[C@@H]([C@@H](C)O)C(=O)N1)[C@@H](C)O)C(=O)N1CCC[C@H]1C(=O)N[C@@H](CO)C(=O)N[C@@H](CO)C(=O)N[C@H](C(=O)N1CCC[C@H]1C(=O)N[C@H](C(=O)NCC(=O)N[C@@H](CO)C(=O)N[C@@H](CC(N)=O)C(=O)N[C@H](C(=O)N[C@@H](Cc1ccc(O)cc1)C(N)=O)[C@@H](C)O)C(C)C)[C@@H](C)O [Example 61] (H-K([AEEA-γGlu-C20 diacid])CNTATCATQRLAHFLRHSSPNFGAIPSSTPVGSNTY-NH2; disulfide 2-7 (inferred)) | 45 h | 10.9 | 10.9 | 10.9 | – |
| CC[C@H](C)[C@H](NC(=O)[C@H](C)NC(=O)CNC(=O)[C@H](Cc1ccccc1)NC(=O)[C@H](CC(N)=O)NC(=O)[C@@H]1CCCN1C(=O)[C@H](CO)NC(=O)[C@H](CO)NC(=O)[C@H](Cc1c[nH]cn1)NC(=O)[C@H](CCCNC(=N)N)NC(=O)[C@H](CC(C)C)NC(=O)[C@H](Cc1ccccc1)NC(=O)[C@H](Cc1c[nH]cn1)NC(=O)[C@H](C)NC(=O)[C@H](CC(C)C)NC(=O)[C@H](CCCNC(=N)N)NC(=O)[C@H](CCC(N)=O)NC(=O)[C@@H](NC(=O)[C@H](C)NC(=O)[C@@H]1CSSC[C@H](NC(=O)[C@@H](N)CCCCNC(=O)CC[C@H](NC(=O)CCCCCCCCCCCCCCCCCCC(=O)O)C(=O)O)C(=O)N[C@@H](CC(N)=O)C(=O)N[C@@H]([C@@H](C)O)C(=O)N[C@@H](C)C(=O)N[C@@H]([C@@H](C)O)C(=O)N1)[C@@H](C)O)C(=O)N1CCC[C@H]1C(=O)N[C@@H](CO)C(=O)N[C@@H](CO)C(=O)N[C@H](C(=O)N1CCC[C@H]1C(=O)N[C@H](C(=O)NCC(=O)N1CCC[C@H]1C(=O)N[C@@H](CC(N)=O)C(=O)N[C@H](C(=O)N[C@@H](Cc1ccc(O)cc1)C(N)=O)[C@@H](C)O)C(C)C)[C@@H](C)O [Example 116] (H-K([γGlu-C20 diacid])CNTATCATQRLAHFLRHSSPNFGAIPSSTPVGPNTY-NH2; disulfide 2-7) | 45 h | 4.9 | – | 4.9 | 4.9 |
| CC[C@H](C)[C@H](NC(=O)[C@H](C)NC(=O)CNC(=O)[C@H](Cc1ccccc1)NC(=O)[C@H](CC(N)=O)NC(=O)[C@@H]1CCCN1C(=O)[C@H](CO)NC(=O)[C@H](CO)NC(=O)[C@H](Cc1c[nH]cn1)NC(=O)[C@H](CCCNC(=N)N)NC(=O)[C@H](CC(C)C)NC(=O)[C@H](Cc1ccccc1)NC(=O)[C@H](CC(N)=O)NC(=O)[C@H](C)NC(=O)[C@H](CC(C)C)NC(=O)[C@H](CCCNC(=N)N)NC(=O)[C@H](CCC(N)=O)NC(=O)[C@@H](NC(=O)[C@H](C)NC(=O)[C@@H]1CSSC[C@H](NC(=O)[C@@H](N)CCCCNC(=O)COCCOCCNC(=O)COCCOCCNC(=O)CC[C@H](NC(=O)CCCCCCCCCCCCCCCCCCC(=O)O)C(=O)O)C(=O)N[C@@H](CC(N)=O)C(=O)N[C@@H]([C@@H](C)O)C(=O)N[C@@H](C)C(=O)N[C@@H]([C@@H](C)O)C(=O)N1)[C@@H](C)O)C(=O)N1CCC[C@H]1C(=O)N[C@@H](CO)C(=O)N[C@@H](CO)C(=O)N[C@H](C(=O)N[C@@H](CC(N)=O)C(=O)N[C@H](C(=O)NCC(=O)N[C@@H](CO)C(=O)N[C@@H](CCC(=O)O)C(=O)N[C@H](C(=O)N[C@@H](Cc1ccc(O)cc1)C(N)=O)[C@@H](C)O)C(C)C)[C@@H](C)O [Example 25] | 2 h | 46.2 | 46.2 | 46.2 | – |
| CC[C@H](C)[C@H](NC(=O)[C@H](C)NC(=O)CNC(=O)[C@H](Cc1ccccc1)NC(=O)[C@H](CC(N)=O)NC(=O)[C@@H]1CCCN1C(=O)[C@H](CO)NC(=O)[C@H](CO)NC(=O)[C@H](Cc1c[nH]cn1)NC(=O)[C@H](CCCNC(=N)N)NC(=O)[C@H](CC(C)C)NC(=O)[C@H](Cc1ccccc1)NC(=O)[C@H](CC(N)=O)NC(=O)[C@H](C)NC(=O)[C@H](CC(C)C)NC(=O)[C@H](CCCNC(=N)N)NC(=O)[C@H](CCC(N)=O)NC(=O)[C@@H](NC(=O)[C@H](C)NC(=O)[C@@H]1CSSC[C@H](NC(=O)[C@@H](N)CCCCNC(=O)COCCOCCNC(=O)CC[C@H](NC(=O)CCCCCCCCCCCCCCCCCCC(=O)O)C(=O)O)C(=O)N[C@@H](CC(N)=O)C(=O)N[C@@H]([C@@H](C)O)C(=O)N[C@@H](C)C(=O)N[C@@H]([C@@H](C)O)C(=O)N1)[C@@H](C)O)C(=O)N1CCC[C@H]1C(=O)N[C@@H](CO)C(=O)N[C@@H](CO)C(=O)N[C@H](C(=O)N[C@@H](CC(N)=O)C(=O)N[C@H](C(=O)NCC(=O)N[C@@H](CO)C(=O)N[C@@H](CCCNC(=N)N)C(=O)N[C@H](C(=O)N[C@@H](Cc1ccc(O)cc1)C(N)=O)[C@@H](C)O)C(C)C)[C@@H](C)O [Example 38] | 27 h | – | – | – | – |
